Data: US20210145000A1, “WEED CONTROL FROM APPLICATIONS OF PYRIDINE CARBOXYLIC ACID HERBICIDES AND ACETYL CoA CARBOXYLASE (ACCase) INHIBITORS” (Dow AgroSciences LLC, priority 2018, published 2021)

Legend:
Experiment in all cases: Postemergence herbicidal activity, greenhouse, visual injury
Type in all cases: in vivo
[1] = tested on: winter rape (Brassica napus, BRSNW); conditions: post-emergence, read-out: Effect (% visual injury) Obs
Method: (§1) Seeds of the desired test plant species were planted in Sun Gro MetroMix® 306 planting mixture, which typically has a pH of 6.0 to 6.8 and an organic matter content of about 30 percent, in plastic pots with a surface area of 103.2 square centimeters (cm^2). When required to ensure good germination and healthy plants, a fungicide treatment and/or other chemical or physical treatment was applied. The plants were grown for 7-36 days (d) in a greenhouse with an approximate 14-hour (h) photoperiod which was maintained at about 23° C. during the day and 22° C. during the night. Nutrients and water were added on a regular basis and supplemental lighting was provided with overhead metal halide 1000-Watt lamps as necessary. The plants were employed for testing when they reached the second or third true leaf stage.
(§2) An emulsifiable concentrate (EC) formulation containing Compound 1 at 100 gai/L was prepared by combining Compound 1 with 1-butyl-2-pyrrolidinone (Tamisolve NxG; 360.5 g/L), benzyl acetate (544.6 g/L) and Agnique MBL 520L surfactant (52.9 g/L). […] The concentrated stock solution was diluted with an aqueous mixture of 1.5% v/v of Agri-dex crop oil concentrate to provide the appropriate application rates. Compound requirements are based upon a 12 milliliter (mL) application volume at a rate of 187 liters per hectare (L/ha). Spray solutions of the experimental compound mixtures were prepared by adding the stock solutions to the appropriate amount of dilution solution to form a 12 mL spray solution in two-way combinations. Formulated compounds were applied to the plant material with an overhead Mandel track sprayer equipped with 8002E nozzles calibrated to deliver 187 L/ha over an application area of 0.503 square meters (m^2) at a spray height of 18 inches (43 centimeters (cm)) above average plant canopy. Control plants were sprayed in the same manner with the solvent blank. Application rates for component (a) are in g ae/ha, and application rates for component (b) are in g ai/ha.
(§3) The treated plants and control plants were placed in a greenhouse as described above and watered by sub-irrigation to prevent wash-off of the test compounds. After 20-22 d, the condition of the test plants as compared with that of the control plants was determined visually and scored on a scale of 0 to 100 percent where 0 corresponds to no injury and 100 corresponds to complete kill. […] The Colby method was used to determine the herbicidal effects expected from the mixtures.

[2] = tested on: chickweed (Stellaria media, STEME); conditions: post-emergence, read-out: Effect (% visual injury) Obs
Method: as §1, §2, §3

[3] = tested on: kochia (Kochia scoparia, KCHSC); conditions: Clethodim 70 g ai/ha
Method: as §1, §2, §3

[4] = tested on: poinsettia (Euphorbia heterophylla, EPHHL); conditions: Clethodim 70 g ai/ha
Method: as §1, §2, §3

[5] = tested on: sunflower (Helianthus annuus, HELAN); conditions: post-emergence, read-out: Effect (% visual injury) Obs
Method: (§4) The plants were grown for 7-36 days (d) in a greenhouse with an approximate 14-hour (h) photoperiod which was maintained at about 23° C. during the day and 22° C. during the night. Nutrients and water were added on a regular basis and supplemental lighting was provided with overhead metal halide 1000-Watt lamps as necessary. The plants were employed for testing when they reached the second or third true leaf stage.
(§5) Spray solutions of the experimental compound mixtures were prepared by adding the stock solutions to the appropriate amount of dilution solution to form a 12 mL spray solution in two-way combinations. […] Control plants were sprayed in the same manner with the solvent blank. Application rates for component (a) are in g ae/ha, and application rates for component (b) are in g ai/ha.
as §3

[6] = tested on: soybean (Glycine max, GLXMA); conditions: post-emergence, read-out: Effect (% visual injury) Obs
Method: as §4, §5, §3

[7] = tested on: blackgrass (Alopecurus myosuroides, ALOMY); conditions: post-emergence, read-out: Effect (% visual injury) Obs
Method: as §4, §5, §3

[8] = tested on: common lambsquarters (Chenopodium album L., CHEAL); conditions: post-emergence, read-out: Effect (% visual injury) Obs
Method: as §4, §5, §3

[9] = tested on: wild pansy (Viola tricolor, VIOTR); conditions: post-emergence, read-out: Effect (% visual injury) Obs
Method: as §4, §5, §3

[10] = tested on: winter wheat (Triticum aestivum, TRZAW); conditions: post-emergence, read-out: Effect (% visual injury) Obs
Method: as §4, §5, §3

[11] = tested on: pigweed (Amaranthus retroflexus, AMARE); conditions: post-emergence, read-out: Effect (% visual injury) Obs
Method: as §4, §5, §3

[12] = tested on: giant foxtail (Setaria faberi, SETFA); conditions: post-emergence, read-out: Effect (% visual injury) Obs
Method: as §4, §5, §3

[13] = tested on: large crabgrass (Digitaria sanguinalis, DIGSA); conditions: post-emergence, read-out: Effect (% visual injury) Obs
Method: as §4, §5, §3

maize (Zea mays, ZEAMX) = conditions: post-emergence, read-out: Effect (% visual injury) Obs
Method: as §4, §5, §3

[14] = tested on: velvetleaf (Abutilon theophrasti, ABUTH); conditions: post-emergence, read-out: Effect (% visual injury) Obs
Method: as §4, §5, §3

[15] = tested on: rice (Oryza sativa, ORYSA); conditions: post-emergence, read-out: Effect (% visual injury) Obs
Method: as §4, §5, §3

[16] = tested on: wild oat (Avena fatua, AVEFA); conditions: post-emergence, read-out: Effect (% visual injury) Obs
Method: as §4, §5, §3

[17] = tested on: barnyardgrass (Echinochloa crus-galli, ECHCG); conditions: post-emergence, read-out: Effect (% visual injury) Obs
Method: as §4, §5, §3

[18] = tested on: wild buckwheat (Polygonum convolvulus, POLCO); conditions: Fallopia convolvulus, post-emergence, read-out: Effect (% visual injury) Obs
Method: as §4, §5, §3

[19] = tested on: grain sorghum (Sorghum vulgare, SORVU); conditions: post-emergence, read-out: Effect (% visual injury) Obs
Method: as §4, §5, §3

## CCSC(C)CC1CC(=O)C(C(CC)=NOC/C=C/Cl)=C(O)C1 (stereo not shown) [Clethodim]
[1]
  plant injury at 70 g/ha: 5%
[2]
  pest or weed control at 70 g/ha: 10%
[3]
  Effect (% visual injury) Obs: 0%
[4]
  Effect (% visual injury) Obs: 30%
[5]
  plant injury at 70 g/ha: 0%
[6]
  plant injury at 70 g/ha: 10%
[7]
  pest or weed control at 70 g/ha: 93%
[8]
  pest or weed control at 70 g/ha: 5%
[9]
  pest or weed control at 70 g/ha: 5%
[10]
  plant injury at 70 g/ha: 70%
[11]
  pest or weed control at 70 g/ha: 5%
[12]
  pest or weed control at 70 g/ha: 85%
[13]
  pest or weed control at 70 g/ha: 70%
Maize (Zea mays, ZEAMX)
  plant injury at 70 g/ha: 100%
[14]
  pest or weed control at 70 g/ha: 0%
[15]
  plant injury at 70 g/ha: 90%
[16]
  pest or weed control at 70 g/ha: 97%
[17]
  pest or weed control at 70 g/ha: 100%
[18]
  pest or weed control at 70 g/ha: 10%

## CCCCOC(=O)[C@@H](C)Oc1ccc(Oc2ccc(C#N)cc2F)cc1 [Cyhalofop-butyl]
[1]
  plant injury at 180 g/ha: 0%
[5]
  plant injury at 180 g/ha: 0%
[9]
  pest or weed control at 180 g/ha: 0%
[10]
  plant injury at 180 g/ha: 0%
[11]
  pest or weed control at 180 g/ha: 0%
[12]
  pest or weed control at 180 g/ha: 90%
[13]
  pest or weed control at 180 g/ha: 85%
Maize (Zea mays, ZEAMX)
  plant injury at 180 g/ha: 95%
[14]
  pest or weed control at 180 g/ha: 0%
[15]
  plant injury at 180 g/ha: 0%
[16]
  pest or weed control at 180 g/ha: 90%
[17]
  pest or weed control at 180 g/ha: 100%
[19]
  plant injury at 180 g/ha: 95%
[18]
  pest or weed control at 180 g/ha: 0%

## COC(=O)C(C)Oc1ccc(Oc2ccc(Cl)cc2Cl)cc1 (stereo not shown) [Diclofop-methyl]
[1]
  plant injury at 280 g/ha: 0%
[2]
  pest or weed control at 280 g/ha: 0%
[5]
  plant injury at 280 g/ha: 0%
[8]
  pest or weed control at 280 g/ha: 0%
[9]
  pest or weed control at 280 g/ha: 0%
[10]
  plant injury at 280 g/ha: 0%
[11]
  pest or weed control at 280 g/ha: 0%
[12]
  pest or weed control at 280 g/ha: 60%
[14]
  pest or weed control at 280 g/ha: 0%
[15]
  plant injury at 280 g/ha: 40%
[17]
  pest or weed control at 280 g/ha: 100%
[18]
  pest or weed control at 280 g/ha: 0%

## CCOC(=O)[C@@H](C)Oc1ccc(Oc2nc3ccc(Cl)cc3o2)cc1 [Fenoxaprop-P-ethyl]
[1]; Fenoxaprop-P-ethyl 46 g ai/ha
  plant injury at 46 g/ha: 0%
[5]; Fenoxaprop-P-ethyl 46 g ai/ha
  plant injury at 46 g/ha: 0%
[7]; Fenoxaprop-P-ethyl 46 g ai/ha
  pest or weed control at 46 g/ha: 0%
[8]; Fenoxaprop-P-ethyl 46 g ai/ha
  pest or weed control at 46 g/ha: 0%
[9]; Fenoxaprop-P-ethyl 46 g ai/ha
  pest or weed control at 46 g/ha: 0%
[10]; Fenoxaprop-P-ethyl 46 g ai/ha
  plant injury at 46 g/ha: 0%
[12]; Fenoxaprop-P-ethyl 46 g ai/ha
  pest or weed control at 46 g/ha: 100%
[13]; Fenoxaprop-P-ethyl 46 g ai/ha
  pest or weed control at 46 g/ha: 100%
Maize (Zea mays, ZEAMX); Fenoxaprop-P-ethyl 46 g ai/ha
  plant injury at 46 g/ha: 100%
[14]; Fenoxaprop-P-ethyl 46 g ai/ha
  pest or weed control at 46 g/ha: 0%
[16]; Fenoxaprop-P-ethyl 46 g ai/ha
  pest or weed control at 46 g/ha: 95%
[17]; Fenoxaprop-P-ethyl 46 g ai/ha
  pest or weed control at 46 g/ha: 100%
[18]; Fenoxaprop-P-ethyl 46 g ai/ha
  pest or weed control at 46 g/ha: 0%
